For orientation: Ki means a dissociation constant, usually derived from enzyme kinetics or from competition with a known ligand. Higher therefore signals a looser hold on the target. As a reminder, the bioavailability is the share of a dose that reaches the circulation, judged against a reference dose that is usually intravenous. The low end stands for poor availability, the high end for good availability. As a reminder, the CL/F is the apparent clearance, not corrected for the fraction that reaches the circulation. Broadly, the half-life is how long it takes for the measured level to halve. High values mean slow loss, low ones fast loss.

In data set [1] the target is 5-hydroxytryptamine receptor 2A (Homo sapiens, UniProt P28223). Description: Binding affinity to human 5HT2A receptor.
Data set [2] can be described thus: Ratio of drug level in brain against plasma in orally dosed rat. The class given is ADME, organism-based. Particulars: po, read-out: BPR.
Data set [3] concerns the target T1, 5-hydroxytryptamine receptor 2C (Homo sapiens, UniProt P28335).
T1 sequence (P28335 whole entry): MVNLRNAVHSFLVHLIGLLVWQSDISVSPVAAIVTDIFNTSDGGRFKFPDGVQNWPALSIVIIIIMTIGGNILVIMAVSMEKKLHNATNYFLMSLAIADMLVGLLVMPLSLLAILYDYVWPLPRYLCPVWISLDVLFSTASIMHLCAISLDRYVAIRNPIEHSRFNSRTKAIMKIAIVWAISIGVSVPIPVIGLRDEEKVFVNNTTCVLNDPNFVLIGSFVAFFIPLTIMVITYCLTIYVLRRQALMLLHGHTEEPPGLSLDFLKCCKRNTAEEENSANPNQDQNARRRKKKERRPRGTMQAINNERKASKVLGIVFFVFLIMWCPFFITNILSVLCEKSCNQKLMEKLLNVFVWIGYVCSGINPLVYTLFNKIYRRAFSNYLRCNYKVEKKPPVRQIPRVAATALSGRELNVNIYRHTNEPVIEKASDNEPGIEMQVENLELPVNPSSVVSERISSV
Description: Binding affinity to human 5HT2C receptor.

A short description of data set [4]: Bioavailability in orally dosed rat. It counts as ADME, organism-based. Particulars: in vivo, po.
Data set [5] concerns the target 5-hydroxytryptamine receptor 2B (Homo sapiens, UniProt P41595). In words: Binding affinity to human 5HT2B receptor.
A short description of data set [6]: Plasma clearance in orally dosed rat. It counts as ADME, organism-based. Particulars: po.
In data set [7] the test system is Rattus norvegicus. Description: Drug level in orally dosed rat brain. It counts as ADME, organism-based. As to conditions: in vivo, po.
A short description of data set [8]: Half life in orally dosed rat. It counts as ADME, organism-based. As to conditions: in vivo, po.
Data set [9] concerns Rattus norvegicus. In words: Volume of distribution in orally dosed rat. Particulars: in vivo, po. The class given is ADME, organism-based.
For data set [10], the target named is 5-hydroxytryptamine receptor 6 (Homo sapiens, UniProt P50406). In words: Binding affinity to human 5HT6 receptor.
Data set [11] concerns the target T2, Adrenergic receptor alpha-1 (Homo sapiens, UniProt P35348+P25100+P35368).
T2 sequence (P35348 whole entry): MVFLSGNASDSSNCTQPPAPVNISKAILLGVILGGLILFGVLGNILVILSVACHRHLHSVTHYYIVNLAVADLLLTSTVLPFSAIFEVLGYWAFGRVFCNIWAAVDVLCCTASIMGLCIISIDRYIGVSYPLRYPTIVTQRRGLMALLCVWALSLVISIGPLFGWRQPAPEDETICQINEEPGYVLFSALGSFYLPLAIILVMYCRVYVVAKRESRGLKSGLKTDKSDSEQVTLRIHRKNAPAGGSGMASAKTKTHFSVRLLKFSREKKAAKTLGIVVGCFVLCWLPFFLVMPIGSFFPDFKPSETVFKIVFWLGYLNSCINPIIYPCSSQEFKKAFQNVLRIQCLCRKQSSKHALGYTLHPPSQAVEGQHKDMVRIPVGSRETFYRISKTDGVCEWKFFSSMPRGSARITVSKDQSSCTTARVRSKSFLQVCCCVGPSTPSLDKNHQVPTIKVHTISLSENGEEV
T2 sequence (P25100 whole entry): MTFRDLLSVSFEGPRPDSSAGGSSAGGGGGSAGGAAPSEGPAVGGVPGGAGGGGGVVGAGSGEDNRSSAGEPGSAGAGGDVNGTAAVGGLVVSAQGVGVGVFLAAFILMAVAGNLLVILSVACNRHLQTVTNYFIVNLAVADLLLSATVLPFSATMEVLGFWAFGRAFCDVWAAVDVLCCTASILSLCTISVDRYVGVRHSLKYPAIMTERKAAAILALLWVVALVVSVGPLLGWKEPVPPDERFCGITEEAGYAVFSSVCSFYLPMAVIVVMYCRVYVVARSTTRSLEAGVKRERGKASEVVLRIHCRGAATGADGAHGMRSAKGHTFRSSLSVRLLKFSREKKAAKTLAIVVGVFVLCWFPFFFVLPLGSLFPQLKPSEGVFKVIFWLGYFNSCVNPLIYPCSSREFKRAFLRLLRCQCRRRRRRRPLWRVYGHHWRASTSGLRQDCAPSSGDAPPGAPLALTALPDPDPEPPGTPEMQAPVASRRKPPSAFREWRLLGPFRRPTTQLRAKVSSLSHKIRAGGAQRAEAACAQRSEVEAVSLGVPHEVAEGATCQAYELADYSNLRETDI
T2 sequence (P35368 whole entry): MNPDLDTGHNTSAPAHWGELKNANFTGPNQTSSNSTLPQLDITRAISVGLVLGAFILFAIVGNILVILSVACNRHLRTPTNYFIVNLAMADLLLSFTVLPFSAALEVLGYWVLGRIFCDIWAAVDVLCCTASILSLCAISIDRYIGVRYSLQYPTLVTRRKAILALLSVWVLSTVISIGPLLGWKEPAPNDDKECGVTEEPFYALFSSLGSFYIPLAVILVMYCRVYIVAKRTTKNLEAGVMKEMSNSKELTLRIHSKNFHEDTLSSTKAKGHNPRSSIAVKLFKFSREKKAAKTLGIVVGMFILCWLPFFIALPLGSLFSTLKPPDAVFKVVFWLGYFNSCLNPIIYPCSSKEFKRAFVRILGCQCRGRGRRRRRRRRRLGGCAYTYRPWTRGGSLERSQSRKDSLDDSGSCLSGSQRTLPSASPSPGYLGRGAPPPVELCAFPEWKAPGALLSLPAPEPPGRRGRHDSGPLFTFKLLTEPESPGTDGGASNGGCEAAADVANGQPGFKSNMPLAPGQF
Description: Binding affinity to human adrenergic alpha-1 receptor. It counts as protein assay.

Data set [12] has as its target D(3) dopamine receptor (Homo sapiens, UniProt P35462). In words: Binding affinity to human dopamine D3 receptor.
In data set [13] the target is 5-hydroxytryptamine receptor 1D (Homo sapiens, UniProt P28221). Description: Binding affinity to human 5HT1D receptor.
Data set [14] deals with 5-hydroxytryptamine receptor 7 (Homo sapiens, UniProt P34969). Description: Binding affinity to human 5HT7 receptor.
Data set [15] addresses 5-hydroxytryptamine receptor 1B (Homo sapiens, UniProt P28222). Description: Binding affinity to human 5HT1B receptor.
Data set [16] deals with Beta-2 adrenergic receptor (Homo sapiens) (UniProt P07550). Description: Binding affinity to human adrenergic beta-2 receptor.
The target in data set [17] is T3, 5-hydroxytryptamine receptor 1A (Homo sapiens, UniProt P08908).
T3 sequence (P08908 whole entry): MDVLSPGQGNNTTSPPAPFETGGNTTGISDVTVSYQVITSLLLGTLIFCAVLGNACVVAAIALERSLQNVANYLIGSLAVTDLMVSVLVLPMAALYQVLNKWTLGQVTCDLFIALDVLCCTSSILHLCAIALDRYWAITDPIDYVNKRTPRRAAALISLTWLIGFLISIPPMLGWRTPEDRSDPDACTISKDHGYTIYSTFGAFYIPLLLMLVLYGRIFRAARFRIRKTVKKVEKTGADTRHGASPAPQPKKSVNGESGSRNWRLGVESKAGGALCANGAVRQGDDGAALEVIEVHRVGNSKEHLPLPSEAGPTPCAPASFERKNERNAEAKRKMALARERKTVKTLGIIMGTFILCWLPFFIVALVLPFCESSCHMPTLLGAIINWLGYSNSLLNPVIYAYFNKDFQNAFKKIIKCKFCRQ
Description: Binding affinity to human 5HT1A receptor.

The target of data set [18] is D(2) dopamine receptor (Homo sapiens) (UniProt P14416). Description: Binding affinity to human dopamine D2 receptor.

Calls of active or inactive are those of the source. The calls are words filed in the database; no cut-off is given here.

5-hydroxytryptamine receptor 2A, sequence (P28223 whole entry): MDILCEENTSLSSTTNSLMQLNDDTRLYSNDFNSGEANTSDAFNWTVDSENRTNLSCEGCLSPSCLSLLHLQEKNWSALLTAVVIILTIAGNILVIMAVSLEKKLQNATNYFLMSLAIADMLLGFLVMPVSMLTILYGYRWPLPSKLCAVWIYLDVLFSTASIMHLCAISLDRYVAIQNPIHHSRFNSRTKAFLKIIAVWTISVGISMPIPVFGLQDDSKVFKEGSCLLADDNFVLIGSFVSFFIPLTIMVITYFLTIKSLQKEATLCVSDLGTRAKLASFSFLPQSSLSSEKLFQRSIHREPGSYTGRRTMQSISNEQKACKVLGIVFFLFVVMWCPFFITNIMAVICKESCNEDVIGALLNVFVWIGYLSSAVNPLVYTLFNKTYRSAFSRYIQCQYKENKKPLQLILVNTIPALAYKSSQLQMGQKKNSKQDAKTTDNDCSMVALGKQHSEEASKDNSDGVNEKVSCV
5-hydroxytryptamine receptor 2B, sequence (P41595 whole entry): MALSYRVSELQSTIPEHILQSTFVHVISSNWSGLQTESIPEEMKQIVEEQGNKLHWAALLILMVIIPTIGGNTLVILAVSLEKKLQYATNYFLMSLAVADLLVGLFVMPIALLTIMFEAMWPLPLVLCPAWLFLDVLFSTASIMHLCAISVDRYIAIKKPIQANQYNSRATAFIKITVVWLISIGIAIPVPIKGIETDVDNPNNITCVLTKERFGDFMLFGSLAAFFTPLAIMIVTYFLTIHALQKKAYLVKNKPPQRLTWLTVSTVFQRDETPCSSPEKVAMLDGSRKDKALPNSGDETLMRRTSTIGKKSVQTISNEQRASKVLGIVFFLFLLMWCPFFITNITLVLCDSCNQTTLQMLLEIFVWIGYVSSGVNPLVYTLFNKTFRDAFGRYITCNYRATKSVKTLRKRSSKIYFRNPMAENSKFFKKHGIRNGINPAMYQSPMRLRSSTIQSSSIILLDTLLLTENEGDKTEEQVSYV
5-hydroxytryptamine receptor 1B, sequence (P28222 whole entry): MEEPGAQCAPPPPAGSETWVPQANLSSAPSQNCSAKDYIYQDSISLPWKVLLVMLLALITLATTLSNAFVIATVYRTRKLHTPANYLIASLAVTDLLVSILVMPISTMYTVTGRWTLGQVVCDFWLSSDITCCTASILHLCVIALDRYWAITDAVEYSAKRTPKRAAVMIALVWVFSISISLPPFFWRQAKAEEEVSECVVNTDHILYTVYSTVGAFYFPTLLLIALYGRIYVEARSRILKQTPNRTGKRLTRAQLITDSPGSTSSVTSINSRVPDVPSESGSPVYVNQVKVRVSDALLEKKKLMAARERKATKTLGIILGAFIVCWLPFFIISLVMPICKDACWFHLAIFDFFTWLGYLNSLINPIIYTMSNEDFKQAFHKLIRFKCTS
5-hydroxytryptamine receptor 7, sequence (P34969 whole entry): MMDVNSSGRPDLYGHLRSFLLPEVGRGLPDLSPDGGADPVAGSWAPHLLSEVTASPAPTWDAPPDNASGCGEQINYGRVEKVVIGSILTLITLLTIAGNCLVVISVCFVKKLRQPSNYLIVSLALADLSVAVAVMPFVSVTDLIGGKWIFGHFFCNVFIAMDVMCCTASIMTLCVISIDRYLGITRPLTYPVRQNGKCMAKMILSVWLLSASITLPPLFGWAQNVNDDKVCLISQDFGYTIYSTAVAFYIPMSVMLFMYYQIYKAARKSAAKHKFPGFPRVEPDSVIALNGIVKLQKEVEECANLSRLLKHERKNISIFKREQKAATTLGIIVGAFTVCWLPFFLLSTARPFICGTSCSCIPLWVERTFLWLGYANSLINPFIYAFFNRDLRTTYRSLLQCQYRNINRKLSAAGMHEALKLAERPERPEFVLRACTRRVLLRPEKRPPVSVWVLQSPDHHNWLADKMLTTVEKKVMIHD
Beta-2 adrenergic receptor (Homo sapiens), sequence (P07550 whole entry, looked up): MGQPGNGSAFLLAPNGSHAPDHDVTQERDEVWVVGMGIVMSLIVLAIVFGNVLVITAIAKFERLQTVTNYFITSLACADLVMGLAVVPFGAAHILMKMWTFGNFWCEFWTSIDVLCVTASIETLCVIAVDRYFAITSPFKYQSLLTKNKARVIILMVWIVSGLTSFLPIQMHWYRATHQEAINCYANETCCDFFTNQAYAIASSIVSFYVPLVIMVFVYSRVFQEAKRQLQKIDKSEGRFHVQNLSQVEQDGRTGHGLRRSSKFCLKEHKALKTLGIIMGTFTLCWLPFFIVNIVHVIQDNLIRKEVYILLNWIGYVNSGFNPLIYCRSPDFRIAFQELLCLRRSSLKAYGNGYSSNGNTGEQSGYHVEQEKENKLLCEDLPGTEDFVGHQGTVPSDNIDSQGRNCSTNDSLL
5-hydroxytryptamine receptor 1D, sequence (P28221 whole entry): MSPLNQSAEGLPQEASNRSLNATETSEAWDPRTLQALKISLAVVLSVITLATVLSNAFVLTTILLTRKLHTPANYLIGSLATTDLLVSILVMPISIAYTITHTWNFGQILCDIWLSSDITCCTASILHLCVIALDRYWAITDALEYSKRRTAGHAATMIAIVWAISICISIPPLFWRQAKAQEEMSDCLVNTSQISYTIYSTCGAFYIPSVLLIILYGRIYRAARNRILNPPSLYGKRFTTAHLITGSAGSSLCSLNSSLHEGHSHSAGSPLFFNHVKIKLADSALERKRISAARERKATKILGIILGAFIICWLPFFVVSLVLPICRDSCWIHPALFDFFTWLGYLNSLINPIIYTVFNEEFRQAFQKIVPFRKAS
D(3) dopamine receptor, sequence (P35462 whole entry): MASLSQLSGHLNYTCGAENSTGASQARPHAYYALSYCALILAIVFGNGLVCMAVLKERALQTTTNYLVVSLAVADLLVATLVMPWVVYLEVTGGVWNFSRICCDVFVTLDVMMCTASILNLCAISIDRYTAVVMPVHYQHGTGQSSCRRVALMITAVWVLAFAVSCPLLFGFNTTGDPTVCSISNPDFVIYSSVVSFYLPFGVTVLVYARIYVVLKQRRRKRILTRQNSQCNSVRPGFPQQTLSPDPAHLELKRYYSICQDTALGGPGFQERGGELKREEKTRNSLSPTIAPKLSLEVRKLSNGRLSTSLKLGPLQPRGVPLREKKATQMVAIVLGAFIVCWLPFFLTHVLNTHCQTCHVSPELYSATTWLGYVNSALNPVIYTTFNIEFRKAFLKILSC
5-hydroxytryptamine receptor 6, sequence (P50406 whole entry): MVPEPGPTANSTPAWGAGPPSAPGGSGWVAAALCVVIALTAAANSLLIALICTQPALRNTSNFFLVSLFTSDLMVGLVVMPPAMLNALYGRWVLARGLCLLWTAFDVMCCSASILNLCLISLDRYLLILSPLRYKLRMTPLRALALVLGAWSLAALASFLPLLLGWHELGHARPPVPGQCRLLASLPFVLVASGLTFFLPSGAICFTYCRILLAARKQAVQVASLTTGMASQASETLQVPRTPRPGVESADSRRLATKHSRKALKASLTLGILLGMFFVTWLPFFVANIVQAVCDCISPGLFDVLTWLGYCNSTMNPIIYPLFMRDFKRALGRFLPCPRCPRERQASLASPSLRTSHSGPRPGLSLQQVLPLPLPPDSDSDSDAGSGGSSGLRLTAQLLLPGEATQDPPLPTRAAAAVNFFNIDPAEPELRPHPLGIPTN
D(2) dopamine receptor (Homo sapiens), sequence (P14416 whole entry): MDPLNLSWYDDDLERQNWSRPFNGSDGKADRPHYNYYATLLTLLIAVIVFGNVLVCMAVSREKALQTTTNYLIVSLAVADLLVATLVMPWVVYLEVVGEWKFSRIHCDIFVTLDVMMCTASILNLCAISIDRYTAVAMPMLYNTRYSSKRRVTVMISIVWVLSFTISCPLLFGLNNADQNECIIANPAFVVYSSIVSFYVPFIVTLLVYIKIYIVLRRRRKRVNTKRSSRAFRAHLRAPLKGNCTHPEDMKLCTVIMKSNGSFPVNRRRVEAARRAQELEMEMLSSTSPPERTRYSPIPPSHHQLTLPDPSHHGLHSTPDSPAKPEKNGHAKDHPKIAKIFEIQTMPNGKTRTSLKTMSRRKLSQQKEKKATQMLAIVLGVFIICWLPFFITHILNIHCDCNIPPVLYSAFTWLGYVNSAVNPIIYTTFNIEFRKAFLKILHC

`COc1ccc(N2CCC(C)(c3ccc(Cl)c(Cl)c3)C2=O)cc1OCCN1CCCCC1` (centres undefined): the figures for the inhibition constant Ki in [1], in data set [3] and in data set [5] were 631 nM, 5.01 nM and 1000 nM, respectively. Besides, the Kp in data set [2] came out at 5. In [4], this compound had a bioavailability of 13%. The CL/F in data set [6] stood at 65 mL/min/kg.

In turn, `COc1ccc(N2CC=C(c3ccc(Cl)c(Cl)c3)C2=O)cc1OCCN1CCC(C)CC1` showed a Drug uptake in data set [7] of 1058 ng/g. Further, the results for the Ki in data set [1], in data set [3] and in data set [5] were 794 nM, 3.16 nM and > 794 nM, respectively. Also, the Kp in data set [2] was 7.2. For the same compound, the half-life in data set [8] was 4.5 h. This compound also registered a bioavailability in data set [4] of 52%. The compound further came in with a CL/F in [6] of 11 mL/min/kg. The same compound gave a Vdss in data set [9] of 4 L.

In the case of `COc1ccc(N2CCC(C)(c3ccc(Cl)c(Cl)c3)C2=O)cc1OCCN1CCC(C)CC1` (centres undefined), the Log Ki in data set [1] is > -6.3. Moreover, the Kp in [2] worked out at 1.8. Besides, the Ki was 5.01 nM in data set [3] and > 794 nM in [5]. Further, in [4], the bioavailability stood at 50%. The compound also came in with a CL/F in data set [6] of 20 mL/min/kg.

For the compound `COc1ccc(N2CC=C(c3ccc(Cl)c(Cl)c3)C2=O)cc1OCCN1CCCCC1`, the Drug uptake in data set [7] amounted to 320 ng/g. Further, the Ki is > 3160 nM in [10]; 631 nM in data set [1]; 0.794 nM in data set [3]; 457 nM in data set [12]; > 3160 nM in [13]; 631 nM in data set [5]. The Ki in data set [14], in data set [15] and in [17] was > 3160 nM in each case. For the same compound, the Kp in [2] was 3.9. For the same compound, the “Log Ki” value in data set [11] is listed as -5.74. Further, in [8], the half-life is 2.8 h. In data set [4], this compound had a bioavailability of 11%. The CL/F in [6] was determined as 59 mL/min/kg. In addition, the result in data set [16] and in [18] was inactive. This compound also yielded a Vdss in data set [9] of 10.7 L.

Source of the values: ChEMBL document CHEMBL1146011, “Diaryl substituted pyrrolidinones and pyrrolones as 5-HT2C inhibitors: synthesis and biological evaluation” (Bioorg Med Chem Lett, 2006).
